Numbers after ± are expanded uncertainties.
Conditions: 101.33 kPa, Crystal, Buoyancy - hydrostatic balance with magnetic suspension - one sinker

Compound	mass density (903 K) [kg/m3]	mass density (913 K) [kg/m3]	mass density (973 K) [kg/m3]	mass density (983 K) [kg/m3]	mass density (993 K) [kg/m3]	mass density (1013 K) [kg/m3]	mass density (1023 K) [kg/m3]	mass density (1033 K) [kg/m3]	mass density (1043 K) [kg/m3]	also measured
[Cl-].[Cs+] [cesium chloride]	3039.5 ± 15	3041.8 ± 16	–	–	–	–	–	–	–	mass density (843 K): 3074.5 ± 16 kg/m3; mass density (853 K): 3067.6 ± 16 kg/m3; mass density (863 K): 3060.2 ± 16 kg/m3; mass density (873 K): 3052.4 ± 16 kg/m3; mass density (883 K): 3046 ± 16 kg/m3; mass density (893 K): 3040.9 ± 15 kg/m3
[Cl-].[K+] [potassium chloride]	–	–	1805.8 ± 9.2	1803.6 ± 9.2	1800.6 ± 9.2	1794.5 ± 9.1	1793.6 ± 9.1	1793.6 ± 9.1	1796.6 ± 9.1	mass density (1003 K): 1797.1 ± 9.1 kg/m3
[Cl-].[Rb+] [rubidium chloride]	2578.4 ± 13	2573.5 ± 13	2547.6 ± 13	2550.3 ± 13	2556.4 ± 13	–	–	–	–	mass density (923 K): 2567.8 ± 13 kg/m3; mass density (933 K): 2562.2 ± 13 kg/m3; mass density (943 K): 2556.1 ± 13 kg/m3; mass density (953 K): 2551.7 ± 13 kg/m3; mass density (963 K): 2548.6 ± 13 kg/m3
[Cl-].[Na+] [sodium chloride]	–	–	–	–	–	1931.2 ± 9.8	1905.8 ± 9.7	1890.4 ± 9.6	1888.3 ± 9.6	mass density (1053 K): 1882 ± 9.6 kg/m3; mass density (1063 K): 1884.9 ± 9.6 kg/m3; mass density (1073 K): 1889.8 ± 9.6 kg/m3

— the NIST ThermoML archive (doi:10.1021/je901030f)
